Each block holds one substance with its values, some of them ahead of it.
Assays:
GFP-14-3-3β = GFP-14-3-3β co-IP with LC-MS/MS, untreated GFP-14-3-3β versus GFP control (14-3-3 interactome); assay type: binding, human
Description: (§1) HeLa Kyoto cells expressing transiently transfected pEGFP(C1)-14-3-3β or pEGFP(C1) control plasmid, were incubated with 20 nM Calyculin A (# 9902 S, Cell Signaling Technology) for 12 min. Cells were washed twice on ice with cold PBS and after addition of 500 µL lysis buffer (100 mM NaCl, 10 mM Tris, 0.1% IGEPAL, 1 mM EDTA, 1 mM EGTA, 20 nM Calyculin A, 1x cOmplete Mini protease inhibitor cocktail (Sigma), 1 mM DTT, 1 mM MnCl2) cells were scraped from plates, lysed by 10 pushes through an injection needle (21 G, BD) and the insoluble fraction was pelleted by centrifugation (10 min, 10^4 rcf, 4 °C). Supernatants were then subjected to incubation with 1 µM recombinant phosphatase or buffer for 1 h at 30 °C. Next, we subjected samples to immunoprecipitation using α-GFP nanobodies covalently coupled to agarose beads (2 h, 4 °C, obtained from the EMBL PEPcore Core Facility). Beads were then washed three times with lysis buffer and samples were eluted in 1x LDS sample buffer (Thermo Fisher Scientific) by heating to 70 °C for 10 min.
(§2) The samples were then reduced with 25 mM dithiothreitol (10 min at 70 °C) and alkylated with 55 mM chloroacetamide (room temperature, 30 min, in the dark). Proteins were run on a precast 4–12% NuPAGE gel (ThermoFisher Scientific) for about 1 cm to concentrate the sample prior to in-gel tryptic digestion, which was performed according to the standard procedures. The peptides obtained were dried to completeness and resuspended in 12 µL of buffer A (0.1% FA), and 5 µL of sample were injected per MS measurement. The experiment was carried out in three independent replicates.
(§3) The samples were analyzed by LC-MS/MS on a Dionex Ultimate 3000 nano-HPLC coupled online to a Fusion Lumos Tribrid mass spectrometer (Thermo Fisher Scientific). Peptides were delivered to a trap column (75 µm × 2 cm, packed in-house with 5 µm C18 resin; Reprosil PUR AQ, Dr. Maisch) and washed using 0.1% FA at a flow rate of 5 µL/min for 10 min. Subsequently, peptides were transferred to an analytical column (75 µm × 45 cm, packed in-house with 3 µm C18 resin; Reprosil Gold) applying a flow rate of 300 nL/min and separated using a 60 min linear gradient from 4% to 32% LC solvent B (0.1% FA, 5% DMSO in ACN) in LC solvent A (0.1% FA in 5% DMSO). The eluate from the analytical column was sprayed via a stainless steel emitter (Thermo Fisher Scientific) at a source voltage of 2.1 kV into the mass spectrometer. The transfer capillary was heated to 275 °C. The Fusion Lumos was operated in positive ionization mode and data-dependent acquisition (DDA), automatically switching between MS1 and MS2 spectrum acquisition. Full scan MS1 spectra were recorded in the Orbitrap from 360 to 1300 m/z at a resolution of 60k (automatic gain control (AGC) target value of 4e5 charges, maximum injection time (maxIT) of 50 ms). Up to 20 peptide precursors were isolated (isolation window, 1.7 m/z; maximum injection time, 25 ms; and AGC value, 1e5), fragmented by high-energy collision-induced dissociation (HCD) using 30% normalized collision energy (NCE), and analyzed at a resolution of 15k in the Orbitrap. Precursor ions that were singly charged, unassigned, or with charge states >6+ were excluded. The dynamic exclusion duration of fragmented precursor ions was 20 s.
(§4) Peptide and protein identification and LFQ were performed using MaxQuant software (version 1.6.1.0)[64] by searching the data against all canonical protein sequences as annotated in the Swissprot reference database (human proteins only, 20193 entries, downloaded 22 March 2016, internally annotated with PFAM domains) using the embedded search engine Andromeda[65]. The MaxQuant search was performed using two variable modifications; oxidation of methionine and N-terminal protein acetylation. Carbamidomethylation on cysteines was specified as a fixed modification. Trypsin (Trypsin/P) was specified as the proteolytic enzyme with up to two allowed missed cleavage sites.

[1] = system: GFP-14-3-3β and its binding proteins; experiment: GFP-14-3-3β co-IP with LC-MS/MS label-free quantification, untreated versus PP1c-treated; set-up: species or system human
Description: as §1, §2, §3, §4

[2] = untreated vs GFP, LFQ intensities, 3 replicates each
[3] = PP1 vs untreated, LFQ intensities, 3 replicates each
[4] = pairwise comparison untreated vs GFP
[5] = pairwise comparison PP1 vs untreated
[6] = GFP-14-3-3β co-IP LC-MS/MS, untreated vs GFP, student's t-test, label-free quantification, 3 replicates each
[7] = GFP-14-3-3β co-IP LC-MS/MS, PP1 vs untreated, student's t-test, label-free quantification, 3 replicates each
[8] = untreated vs GFP, LFQ intensities, replicates 1-3
[9] = PP1 vs untreated, LFQ intensities, replicates 1-3
[10] = untreated vs GFP, label-free quantification
[11] = PP1 vs untreated, label-free quantification
[12] = pairwise comparison untreated GFP-14-3-3β vs GFP, student's t-test, 3 replicates each, LC-MS/MS label-free quantification
[13] = pairwise comparison PP1 vs untreated, student's t-test, 3 replicates each, LC-MS/MS label-free quantification

Substance: HNRNPU
- Difference (log2), untreated vs GFP (GFP-14-3-3β; [6]): 0.9402 log2
- Difference (log2), PP1 vs untreated [1, 7]: -0.3998 log2

Substance: HSP90AB1
- Difference (log2), untreated vs GFP (GFP-14-3-3β; [8]): 0.1843 log2
- Difference (log2), PP1 vs untreated [1, 9]: -0.9521 log2

Substance: HSPA5
- Difference (log2), untreated vs GFP (GFP-14-3-3β; [6]): -0.3432 log2
- Difference (log2), PP1 vs untreated [1, 7]: -0.6263 log2

Substance: HSPA9
- Difference (log2), untreated vs GFP (GFP-14-3-3β; [8]): -0.4978 log2
- Difference (log2), PP1 vs untreated [1, 9]: -1.091 log2

Substance: ILF2
- Difference (log2), untreated vs GFP (GFP-14-3-3β; [4]): 3.657 log2
- Difference (log2), PP1 vs untreated [1, 5]: -0.07574 log2

Substance: KHDRBS1
- Difference (log2), untreated vs GFP (GFP-14-3-3β; [8]): -0.7979 log2
- Difference (log2), PP1 vs untreated [1, 9]: -0.7597 log2

Substance: KIAA0930
- Difference (log2), untreated vs GFP (GFP-14-3-3β; [12]): 3.752 log2
- Difference (log2), PP1 vs untreated [1, 13]: -2.858 log2

Substance: LAMA5
- Difference (log2), untreated vs GFP (GFP-14-3-3β; [2]): -1.96 log2
- Difference (log2), PP1 vs untreated [1, 3]: 0.4607 log2

Substance: LANCL1
- Difference (log2), untreated vs GFP (GFP-14-3-3β; [8]): -0.5316 log2
- Difference (log2), PP1 vs untreated [1, 9]: -1.493 log2

Substance: LARP4B
- Difference (log2), untreated vs GFP (GFP-14-3-3β; [10]): 0.9646 log2
- Difference (log2), PP1 vs untreated [1, 11]: 0.8043 log2

Substance: LARS
- Difference (log2), untreated vs GFP (GFP-14-3-3β; [4]): -0.7263 log2
- Difference (log2), PP1 vs untreated [1, 5]: 0.05859 log2

Substance: LMO7
- Difference (log2), untreated vs GFP (GFP-14-3-3β; [12]): 0.9984 log2
- Difference (log2), PP1 vs untreated [1, 13]: -2.202 log2

Substance: MAP7D1
- Difference (log2), untreated vs GFP (GFP-14-3-3β; [10]): 0.3595 log2
- Difference (log2), PP1 vs untreated [1, 11]: 0.8008 log2

Substance: MARK1
- Difference (log2), untreated vs GFP (GFP-14-3-3β; [12]): 5.5786 log2
- Difference (log2), PP1 vs untreated [1, 13]: -2.037 log2

Substance: MAT2A
- Difference (log2), untreated vs GFP (GFP-14-3-3β; [12]): 0.8108 log2
- Difference (log2), PP1 vs untreated [1, 13]: -2.199 log2

Substance: MKI67
- Difference (log2), untreated vs GFP (GFP-14-3-3β; [4]): 1.0535 log2
- Difference (log2), PP1 vs untreated [1, 5]: 0.1166 log2

Substance: MSH6
- Difference (log2), untreated vs GFP (GFP-14-3-3β; [4]): 1.062 log2
- Difference (log2), PP1 vs untreated [1, 5]: 0.0512 log2

Now from value to substance, other results behind:

- Difference (log2), PP1 vs untreated [1, 3]: 0.4916 log2
Substance: HNRNPAB
- Difference (log2), untreated vs GFP (GFP-14-3-3β; [2]): 0.1502 log2

- Difference (log2), PP1 vs untreated [1, 5]: 0.05533 log2
Substance: HNRNPK
- Difference (log2), untreated vs GFP (GFP-14-3-3β; [4]): 0.6096 log2

- Difference (log2), PP1 vs untreated [1, 9]: -0.7937 log2
Substance: HSPA1B;HSPA1A
- Difference (log2), untreated vs GFP (GFP-14-3-3β; [8]): 0.2148 log2

- Difference (log2), PP1 vs untreated [1, 7]: -0.3347 log2
Substance: HSPA8
- Difference (log2), untreated vs GFP (GFP-14-3-3β; [6]): -0.3706 log2

- Difference (log2), PP1 vs untreated [1, 7]: -0.1455 log2
Substance: HSPB1
- Difference (log2), untreated vs GFP (GFP-14-3-3β; [6]): 0.3674 log2

- Difference (log2), PP1 vs untreated [1, 11]: 0.961 log2
Substance: IFI16
- Difference (log2), untreated vs GFP (GFP-14-3-3β; [10]): 0.868 log2

- Difference (log2), PP1 vs untreated [1, 11]: 1.157 log2
Substance: IMPDH2
- Difference (log2), untreated vs GFP (GFP-14-3-3β; [10]): -1.172 log2

- Difference (log2), PP1 vs untreated [1, 7]: -0.359 log2
Substance: IQGAP1
- Difference (log2), untreated vs GFP (GFP-14-3-3β; [6]): 0.3872 log2

- Difference (log2), PP1 vs untreated [1, 5]: 0.1762 log2
Substance: ITPR3
- Difference (log2), untreated vs GFP (GFP-14-3-3β; [4]): -0.007222 log2

- Difference (log2), PP1 vs untreated [1, 7]: -0.3502 log2
Substance: KARS
- Difference (log2), untreated vs GFP (GFP-14-3-3β; [6]): -0.1156 log2

- Difference (log2), PP1 vs untreated [1, 7]: -0.2284 log2
Substance: KIAA1671
- Difference (log2), untreated vs GFP (GFP-14-3-3β; [6]): 1.934 log2

- Difference (log2), PP1 vs untreated [1, 11]: 0.983 log2
Substance: LARP4
- Difference (log2), untreated vs GFP (GFP-14-3-3β; [10]): -0.1959 log2

- Difference (log2), PP1 vs untreated [1, 3]: 0.4051 log2
Substance: LGALS1
- Difference (log2), untreated vs GFP (GFP-14-3-3β; [2]): -0.7235 log2

- Difference (log2), PP1 vs untreated [1, 9]: -0.9155 log2
Substance: LGALS3
- Difference (log2), untreated vs GFP (GFP-14-3-3β; [8]): 0.3389 log2

- Difference (log2), PP1 vs untreated [1, 13]: -2.124 log2
Substance: MARK2
- Difference (log2), untreated vs GFP (GFP-14-3-3β; [12]): 5.827 log2

- Difference (log2), PP1 vs untreated [1, 13]: -2.088 log2
Substance: MARK3
- Difference (log2), untreated vs GFP (GFP-14-3-3β; [12]): 4.732 log2

- Difference (log2), PP1 vs untreated [1, 11]: 1.01 log2
Substance: MCM7
- Difference (log2), untreated vs GFP (GFP-14-3-3β; [10]): 0.04561 log2

- Difference (log2), PP1 vs untreated [1, 11]: 1.148 log2
Substance: MED1
- Difference (log2), untreated vs GFP (GFP-14-3-3β; [10]): 0.09613 log2

- Difference (log2), PP1 vs untreated ([1]; log2 difference, pairwise comparison PP1 vs untreated, label-free quantification, 3 replicates each): 1.301
Substance: MGST3
- Difference (log2), untreated vs GFP (GFP-14-3-3β; log2 difference, pairwise comparison untreated vs GFP, label-free quantification, 3 replicates each): 0.5005

- Difference (log2), PP1 vs untreated [1, 9]: -1.535 log2
Substance: MLEC
- Difference (log2), untreated vs GFP (GFP-14-3-3β; [8]): 0.8854 log2

- Difference (log2), PP1 vs untreated [1, 5]: 0.08295 log2
Substance: MTCL1
- Difference (log2), untreated vs GFP (GFP-14-3-3β; [4]): 0.986 log2

- Difference (log2), PP1 vs untreated [1, 13]: -3.693 log2
Substance: MYCBP2
- Difference (log2), untreated vs GFP (GFP-14-3-3β; [12]): 7.929 log2

- Difference (log2), PP1 vs untreated [1, 13]: -2.032 log2
Substance: MYH9
- Difference (log2), untreated vs GFP (GFP-14-3-3β; [12]): 0.3664 log2

From publication PMC7367873, “Dissecting the sequence determinants for dephosphorylation by the catalytic subunits of phosphatases PP1 and PP2A” (Nature Communications, 2020)
